Results as given in US20230226105A1, “METHODS AND COMPOSITIONS FOR TREATING CANCER” (ReversPAH LLC, priority 2021, published 2023).

What was measured:
[1] = Solubility of crushed and screened TTM particles in water; type: physicochemical; conditions: particles after 70-mesh screen
Text: The present inventors undertook a study to determine the size of the TTM particles after a crushing and screening process using a 70-mesh screen that would allow a maximum particle size of 210 micrometers. The size range was as follows: 10% under 13.3 μm; 50% under 44.5 μm; 90% under 122 μm.
This is not unsurprising, as saturation will occur in fluids as a known principle and does illustrate enough fluid is required to be available to dissolve the administered TTM to create optimal bioavailability. Further, larger particles with […] surface area would be expected to remain after the smaller particles dissolve.

[2] = Stability of TTM filled in enteric capsules exposed to stomach acid / simulated stomach acid; type: physicochemical; conditions: additional enteric coatings applied; after one hour
Experimental: The present inventors have determined that while the designed disintegration properties of an enteric capsule remain stable for 2 hours and the designed enteric capsule may have a diffusion rate below 7.5% in the first two hours, the inventors research confirmed in fact stomach acid or moisture from the stomach does enter the capsule, and the enteric interior capsule walls become wet, thereby subjecting the TTM to the acid or moisture, causing rapid degradation of the enteric capsule from the chemical reaction with the moistened TTM.
The present inventors have determined that the TTM releases H2S gas when a small amount of stomach acid or moisture enters the enteric capsule, not only causing degradation of the TTM, but also the moisture seeping through the capsule causes TTM to release H2S as part of the degradation process, which then comes in contact with the inside of the enteric capsule. This dissolves the enteric capsule from inside the capsule and leads to a catastrophic capsule failure within 15 to 30 minutes.
This is not a preferred solution as the TTM is getting wet inside the capsule and degrading, creating the problem of not knowing how much TTM will be left to be absorbed by the patient after the tablet leaves the stomach. Such a reaction reduces the amount of drug being available to the patient, thereby reducing the drugs intended effect due to less TTM available. […]

**Q.** Which solubility in water ([1]; 60 mg in 300 ml water) does the source give for `[SH-].[SH-].[S]=[Mo]=[S]` [TTM, tetrathiomolybdate] here?
**A.** The solubility in water was “dissolved fully over time”.

**Q.** And the solubility in water ([1]; 160 mg in 300 ml of water)?
**A.** The solubility in water was “did not fully dissolve”.

**Q.** What about the “TTM leakage from enteric capsule with additional enteric coatings” value [2] of the same compound?
**A.** Its value is “still leaking out”.
